Data published in patent US8178668B2, “2-aminopyridine kinase inhibitors” (OSI Pharmaceuticals, LLC, priority 2008, dated 2012).
Where a name gives a salt, the structure may show the parent alone.

How the values were obtained:
RON (human) = RON (human) (Homo sapiens, UniProt Q04912); test: RON kinase AlphaScreen assay (Km of ATP); assay type: biochemical; conditions: ATP at Km; at least duplicate experiments
Summary of the method: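 Human RON phosphorylated biotinylated poly(Glu,Tyr) (200 ng/μL) at Km ATP in 50 mM HEPES pH 7.4, 12.5 mM MgCl2, 1% glycerol, 0.334 mM vanadate, 1% DMSO. Reaction ran 30 min at RT after enzyme addition. Product was detected by AlphaScreen with PT66 beads after 1 h.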

MET (human) = MET (human) (Homo sapiens, UniProt P08581); test: MET kinase AlphaScreen assay (Km of ATP); assay type: biochemical; conditions: ATP at Km; at least duplicate experiments
Summary of the method: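 Biotinylated poly(Glu,Tyr) (200 ng/μL) phosphorylated by MET with ATP at an enzyme-optimized level, in 50 mM HEPES pH 7.4 with Mg2+/Mn2+ and vanadate, 1% DMSO. Reaction runs 60 min at RT. PT66 AlphaScreen donor/acceptor beads are added and signal is read after 1 h.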

RON (human), sequence (Q04912 25-1400): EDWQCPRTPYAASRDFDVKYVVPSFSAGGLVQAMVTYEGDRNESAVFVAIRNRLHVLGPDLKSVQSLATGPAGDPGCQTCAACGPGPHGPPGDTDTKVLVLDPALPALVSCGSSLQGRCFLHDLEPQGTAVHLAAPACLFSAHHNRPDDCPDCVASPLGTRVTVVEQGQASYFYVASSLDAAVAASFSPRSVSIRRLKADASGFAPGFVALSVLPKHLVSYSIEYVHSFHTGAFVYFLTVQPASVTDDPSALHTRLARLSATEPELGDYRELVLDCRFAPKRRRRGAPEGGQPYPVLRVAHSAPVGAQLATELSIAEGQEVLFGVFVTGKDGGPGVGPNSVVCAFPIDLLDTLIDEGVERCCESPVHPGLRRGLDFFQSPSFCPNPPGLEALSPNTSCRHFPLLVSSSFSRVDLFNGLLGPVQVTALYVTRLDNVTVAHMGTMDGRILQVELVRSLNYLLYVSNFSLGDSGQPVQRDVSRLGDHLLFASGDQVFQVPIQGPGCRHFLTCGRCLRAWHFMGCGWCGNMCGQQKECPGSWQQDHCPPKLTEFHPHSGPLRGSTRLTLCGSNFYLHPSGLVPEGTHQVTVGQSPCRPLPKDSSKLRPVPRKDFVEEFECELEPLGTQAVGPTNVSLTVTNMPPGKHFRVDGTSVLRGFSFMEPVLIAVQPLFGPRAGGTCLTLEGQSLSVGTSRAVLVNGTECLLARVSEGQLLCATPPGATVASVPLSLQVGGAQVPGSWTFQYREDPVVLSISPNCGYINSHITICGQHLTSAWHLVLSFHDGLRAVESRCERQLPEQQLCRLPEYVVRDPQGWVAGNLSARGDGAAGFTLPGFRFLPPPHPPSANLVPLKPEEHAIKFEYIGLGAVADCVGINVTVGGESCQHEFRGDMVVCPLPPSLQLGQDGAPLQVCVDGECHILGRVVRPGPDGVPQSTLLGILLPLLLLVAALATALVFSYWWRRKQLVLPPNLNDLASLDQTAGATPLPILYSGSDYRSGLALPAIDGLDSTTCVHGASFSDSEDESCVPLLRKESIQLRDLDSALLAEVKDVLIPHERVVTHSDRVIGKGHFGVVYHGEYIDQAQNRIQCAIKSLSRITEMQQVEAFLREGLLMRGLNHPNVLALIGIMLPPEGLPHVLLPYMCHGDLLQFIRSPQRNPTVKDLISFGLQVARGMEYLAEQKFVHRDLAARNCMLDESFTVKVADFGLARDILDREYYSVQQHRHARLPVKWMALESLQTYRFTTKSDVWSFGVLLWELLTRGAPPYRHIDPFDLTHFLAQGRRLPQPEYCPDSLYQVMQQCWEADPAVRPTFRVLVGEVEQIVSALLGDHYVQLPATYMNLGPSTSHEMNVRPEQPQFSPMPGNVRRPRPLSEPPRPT
MET (human), sequence (P08581 25-1390): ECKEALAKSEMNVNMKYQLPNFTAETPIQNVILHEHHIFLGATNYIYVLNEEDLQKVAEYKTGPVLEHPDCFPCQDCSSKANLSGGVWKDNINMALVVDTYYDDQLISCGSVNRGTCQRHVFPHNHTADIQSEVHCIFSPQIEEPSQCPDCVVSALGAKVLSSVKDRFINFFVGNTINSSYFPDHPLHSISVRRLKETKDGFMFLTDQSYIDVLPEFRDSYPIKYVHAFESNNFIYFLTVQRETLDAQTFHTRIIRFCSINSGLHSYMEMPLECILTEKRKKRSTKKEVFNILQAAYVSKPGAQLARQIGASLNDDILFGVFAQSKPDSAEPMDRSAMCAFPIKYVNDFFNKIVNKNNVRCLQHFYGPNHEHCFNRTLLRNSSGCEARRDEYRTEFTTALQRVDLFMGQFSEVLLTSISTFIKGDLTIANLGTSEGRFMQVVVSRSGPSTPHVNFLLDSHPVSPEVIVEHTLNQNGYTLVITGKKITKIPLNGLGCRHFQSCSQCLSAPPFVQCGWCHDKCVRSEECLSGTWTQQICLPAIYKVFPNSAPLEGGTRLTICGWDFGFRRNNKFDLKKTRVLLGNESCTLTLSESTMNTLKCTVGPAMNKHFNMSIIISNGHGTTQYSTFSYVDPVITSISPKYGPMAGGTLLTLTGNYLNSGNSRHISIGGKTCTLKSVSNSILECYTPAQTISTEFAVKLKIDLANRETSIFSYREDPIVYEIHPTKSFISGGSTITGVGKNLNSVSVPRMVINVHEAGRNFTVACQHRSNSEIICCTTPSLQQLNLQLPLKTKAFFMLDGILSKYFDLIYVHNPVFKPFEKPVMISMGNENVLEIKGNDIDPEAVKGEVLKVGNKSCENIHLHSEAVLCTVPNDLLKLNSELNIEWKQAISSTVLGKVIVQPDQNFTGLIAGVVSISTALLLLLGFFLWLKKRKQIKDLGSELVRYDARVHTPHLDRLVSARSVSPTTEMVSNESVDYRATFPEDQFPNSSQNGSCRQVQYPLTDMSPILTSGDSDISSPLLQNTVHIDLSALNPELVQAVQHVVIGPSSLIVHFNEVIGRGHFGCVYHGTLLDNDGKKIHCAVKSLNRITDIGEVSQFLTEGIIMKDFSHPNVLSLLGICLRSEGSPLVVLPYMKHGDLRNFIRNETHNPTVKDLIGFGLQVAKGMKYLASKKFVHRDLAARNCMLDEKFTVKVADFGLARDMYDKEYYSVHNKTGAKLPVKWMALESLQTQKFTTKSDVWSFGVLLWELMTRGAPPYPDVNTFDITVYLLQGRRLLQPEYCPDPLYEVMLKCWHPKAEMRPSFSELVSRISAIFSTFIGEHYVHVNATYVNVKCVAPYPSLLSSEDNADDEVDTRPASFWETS

| SMILES | IC50 (RON (human)) [µM] | IC50 (MET (human)) [µM] |
| --- | --- | --- |
| CN(C)C(=O)N1CCC(n2cc(-c3cnc(N)c(-c4nc5ccccc5s4)c3)cn2)CC1 [Example 117, 4-[4-(6-Amino-5-benzothiazol-2-yl-pyridin-3-yl)-pyrazol-1-yl]-piperidine-1-carboxylic acid dimethylamide bis-hydrochloride] | 0.1 to 1 | 0.1 to 1 |
| CC(C)n1cc(-c2cnc(N)c(-c3nc4ccccc4s3)c2)cn1 [Example 118, 3-Benzothiazol-2-yl-5-(1-isopropyl-1H-pyrazol-4-yl)-pyridin-2-ylamine bis-hydrochloride] | 0.1 to 1 | 0.1 to 1 |
| Cn1cc(-c2cnc(N)c(-c3nc4ccccc4s3)c2)cn1 [Example 119, 3-Benzothiazol-2-yl-5-(1-methyl-1H-pyrazol-4-yl)-pyridin-2-ylamine bis-hydrochloride] | 1 to 20 | 1 to 20 |
| Nc1ncc(-c2cnc(N3CCOCC3)s2)cc1-c1nc2ccccc2s1 [Example 120, 3-Benzothiazol-2-yl-5-(2-morpholin-4-ylthiazol-5-yl)-pyridin-2-ylamine] | 1 to 20 | 1 to 20 |
| CN1CCN(c2ncc(-c3cnc(N)c(-c4nc5ccccc5s4)c3)s2)CC1 [Example 121, 3-Benzothiazol-2-yl-5-[2-(4-methylpiperazin-1-yl)-thiazol-5-yl]-pyridin-2-ylamine dihydrochloride] | 0.1 to 1 | 0.1 to 1 |
| Nc1ncc(-c2cnc(N3CCNCC3)s2)cc1-c1nc2ccccc2s1 [Example 122, 3-Benzothiazol-2-yl-5-(2-piperazin-1-ylthiazol-5-yl)-pyridin-2-ylamine dihydrochloride] | 0.1 to 1 | 0.1 to 1 |
| Nc1ncc(-c2cnn(C3CCC(=O)CC3)c2)cc1-c1nc2ccccc2s1 [Example 123, 4-[4-(6-Amino-5-benzothiazol-2-ylpyridin-3-yl)-pyrazol-1-yl]-cyclohexanone] | 0.1 to 1 | 0.1 to 1 |
| Nc1ncc(-c2cnn(C3CCC4(CC3)OCCO4)c2)cc1-c1nc2ccccc2s1 [Example 124, 3-Benzothiazol-2-yl-5-[1-(1,4-dioxaspiro[4.5]dec-8-yl)-1H-pyrazol-4-yl]-pyridin-2-ylamine] | 1 to 20 | > 20 |
| CC(C)(C)OC(=O)NCC#Cc1cnc(N)c(-c2nc3ccccc3s2)c1 [Example 125, [3-(6-Amino-5-benzothiazol-2-ylpyridin-3-yl)-prop-2-ynyl]-carbamic acid tert-butyl ester] | > 20 | 1 to 20 |
| NCC#Cc1cnc(N)c(-c2nc3ccccc3s2)c1 [Example 126, 5-(3-Aminoprop-1-ynyl)-3-benzothiazol-2-ylpyridin-2-ylamine] | > 20 | 1 to 20 |
| CN(C)C(=O)NCC#Cc1cnc(N)c(-c2nc3ccccc3s2)c1 [Example 127, 3-[3-(6-Amino-5-benzothiazol-2-ylpyridin-3-yl)-prop-2-ynyl]-1,1-dimethylurea] | 1 to 20 | 1 to 20 |
| CCN1CCN(C(=O)NCC#Cc2cnc(N)c(-c3nc4ccccc4s3)c2)CC1 [Example 128, 4-Ethylpiperazine-1-carboxylic acid [3-(6-amino-5-benzothiazol-2-ylpyridin-3-yl)-prop-2-ynyl]-amide] | 1 to 20 | 1 to 20 |
| NC(=O)NCC#Cc1cnc(N)c(-c2nc3ccccc3s2)c1 [Example 129, [3-(6-Amino-5-benzothiazol-2-ylpyridin-3-yl)-prop-2-ynyl]-urea] | 1 to 20 | 1 to 20 |
| CN(C)CC(=O)NCC#Cc1cnc(N)c(-c2nc3ccccc3s2)c1 [Example 130, N-[3-(6-Amino-5-benzothiazol-2-ylpyridin-3-yl)-prop-2-ynyl]-2-dimethylaminoacetamide] | 1 to 20 | 0.1 to 1 |
| Nc1ncc(C#CCNC(=O)CN2CCCC2)cc1-c1nc2ccccc2s1 [Example 131, N-[3-(6-Amino-5-benzothiazol-2-ylpyridin-3-yl)-prop-2-ynyl]-2-pyrrolidin-1-ylacetamide] | 1 to 20 | 1 to 20 |
| Nc1ncc(-c2cnn(CC(=O)N3CCOCC3)c2)cc1-c1nc2ccccc2s1 [Example 132, 2-[4-(6-Amino-5-benzothiazol-2-ylpyridin-3-yl)-pyrazol-1-yl]-1-morpholin-4-ylethanone] | 1 to 20 | 1 to 20 |
| Nc1ncc(-c2cnn(CC(=O)N3CCCC3)c2)cc1-c1nc2ccccc2s1 [Example 133, 2-[4-(6-Amino-5-benzothiazol-2-ylpyridin-3-yl)-pyrazol-1-yl]-1-pyrrolidin-1-ylethanone] | 1 to 20 | 1 to 20 |
| COCCNC(=O)Cn1cc(-c2cnc(N)c(-c3nc4ccccc4s3)c2)cn1 [Example 134, 2-[4-(6-Amino-5-benzothiazol-2-ylpyridin-3-yl)-pyrazol-1-yl]-N-(2-methoxyethyl)-acetamide] | 1 to 20 | 1 to 20 |

| SMILES | IC50 (RON (human)) [µM] | IC50 (MET (human)) [µM] |
| --- | --- | --- |
| Nc1ncc(-c2cnn(CC(=O)N3CCC(O)C3)c2)cc1-c1nc2ccccc2s1 (stereo not shown) [Example 135, 2-[4-(6-Amino-5-benzothiazol-2-ylpyridin-3-yl)-pyrazol-1-yl]-1-(3-hydroxypyrrolidin-1-yl)-ethanone] | 1 to 20 | 1 to 20 |
| Nc1ncc(-c2cnn(CC(=O)NCCO)c2)cc1-c1nc2ccccc2s1 [Example 136, 2-[4-(6-Amino-5-benzothiazol-2-ylpyridin-3-yl)-pyrazol-1-yl]-N-(2-hydroxyethyl)-acetamide] | 1 to 20 | 1 to 20 |
| CNC(=O)Cn1cc(-c2cnc(N)c(-c3nc4ccccc4s3)c2)cn1 [Example 137, 2-[4-(6-Amino-5-benzothiazol-2-ylpyridin-3-yl)-pyrazol-1-yl]-N-methylacetamide] | > 20 | > 20 |
| COCCN(CCOC)C(=O)Cn1cc(-c2cnc(N)c(-c3nc4ccccc4s3)c2)cn1 [Example 138, 2-[4-(6-Amino-5-benzothiazol-2-ylpyridin-3-yl)-pyrazol-1-yl]-N,N-bis-(2-methoxyethyl)-acetamide] | 1 to 20 | 1 to 20 |
| Nc1ncc(-c2cnn(CC(=O)N3CCC(O)CC3)c2)cc1-c1nc2ccccc2s1 [Example 139, 2-[4-(6-Amino-5-benzothiazol-2-ylpyridin-3-yl)-pyrazol-1-yl]-1-(4-hydroxypiperidin-1-yl)-ethanone] | 1 to 20 | 1 to 20 |
| CN(C)C(=O)Cn1cc(-c2cnc(N)c(-c3nc4ccccc4s3)c2)cn1 [Example 140, 2-[4-(6-Amino-5-benzothiazol-2-ylpyridin-3-yl)-pyrazol-1-yl]-N,N-dimethylacetamide] | 1 to 20 | 1 to 20 |
| Nc1ncc(-c2cnn(CC(=O)N3CCCCC3)c2)cc1-c1nc2ccccc2s1 [Example 141, 2-[4-(6-Amino-5-benzothiazol-2-ylpyridin-3-yl)-pyrazol-1-yl]-1-piperidin-1-ylethanone] | 1 to 20 | 1 to 20 |
| CC(C(=O)N1CCOCC1)n1cc(-c2cnc(N)c(-c3nc4ccccc4s3)c2)cn1 (stereo not shown) [Example 142, 2-[4-(6-Amino-5-benzothiazol-2-ylpyridin-3-yl)-pyrazol-1-yl]-1-morpholin-4-ylpropan-1-one] | 1 to 20 | 1 to 20 |
| COCCN(CCOC)C(=O)C(C)n1cc(-c2cnc(N)c(-c3nc4ccccc4s3)c2)cn1 (stereo not shown) [Example 143, 2-[4-(6-Amino-5-benzothiazol-2-ylpyridin-3-yl)-pyrazol-1-yl]-N,N-bis-(2-methoxyethyl)-propionamide] | 1 to 20 | 1 to 20 |
| CNC(=O)C(C)n1cc(-c2cnc(N)c(-c3nc4ccccc4s3)c2)cn1 (stereo not shown) [Example 144, 2-[4-(6-Amino-5-benzothiazol-2-ylpyridin-3-yl)-pyrazol-1-yl]-N-methylpropionamide] | 1 to 20 | 1 to 20 |
| CC(C(N)=O)n1cc(-c2cnc(N)c(-c3nc4ccccc4s3)c2)cn1 (stereo not shown) [Example 145, 2-[4-(6-Amino-5-benzothiazol-2-ylpyridin-3-yl)-pyrazol-1-yl]-propionamide] | 1 to 20 | 0.1 to 1 |
| COCCNC(=O)C(C)n1cc(-c2cnc(N)c(-c3nc4ccccc4s3)c2)cn1 (stereo not shown) [Example 146, 2-[4-(6-Amino-5-benzothiazol-2-ylpyridin-3-yl)-pyrazol-1-yl]-N-(2-methoxyethyl)-propionamide] | 1 to 20 | 1 to 20 |
| CC(C(=O)NCCO)n1cc(-c2cnc(N)c(-c3nc4ccccc4s3)c2)cn1 (stereo not shown) [Example 147, 2-[4-(6-Amino-5-benzothiazol-2-ylpyridin-3-yl)-pyrazol-1-yl]-N-(2-hydroxyethyl)-propionamide] | 1 to 20 | 1 to 20 |
| CC(C(=O)N(C)C)n1cc(-c2cnc(N)c(-c3nc4ccccc4s3)c2)cn1 (stereo not shown) [Example 148, 2-[4-(6-Amino-5-benzothiazol-2-ylpyridin-3-yl)-pyrazol-1-yl]-N,N-dimethylpropionamide] | 1 to 20 | 1 to 20 |
| CC(C(=O)N1CCC(O)C1)n1cc(-c2cnc(N)c(-c3nc4ccccc4s3)c2)cn1 (stereo not shown) [Example 149, 2-[4-(6-Amino-5-benzothiazol-2-ylpyridin-3-yl)-pyrazol-1-yl]-1-(3-hydroxypyrrolidin-1-yl)-propan-1-one] | 1 to 20 | 1 to 20 |
| CC(C(=O)N1CCC(O)CC1)n1cc(-c2cnc(N)c(-c3nc4ccccc4s3)c2)cn1 (stereo not shown) [Example 150, 2-[4-(6-Amino-5-benzothiazol-2-ylpyridin-3-yl)-pyrazol-1-yl]-1-(4-hydroxypiperidin-1-yl)-propan-1-one] | 0.1 to 1 | 0.1 to 1 |
| CC(C(=O)N1CCCC1)n1cc(-c2cnc(N)c(-c3nc4ccccc4s3)c2)cn1 (stereo not shown) [Example 151, 2-[4-(6-Amino-5-benzothiazol-2-ylpyridin-3-yl)-pyrazol-1-yl]-1-pyrrolidin-1-ylpropan-1-one] | 0.1 to 1 | 0.1 to 1 |
